According to ChEMBL document CHEMBL1201862, “PubChem BioAssay data set” (2004):
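1) Cells in 96-well plates. 2) Compound, 48 h, 5 concentrations. 3) Linear interpolation between surrounding doses. 4) Unreached endpoint = highest concentration. GI50: concentration for 50% inhibition of growth.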 Calls of active or inactive are those of the source. Cut-off read from the data, not from the text of the source: active = GI50 up to about 1.1 µM and inactive = higher.

Assays:
Assay in all cases: NCI tumour cell line growth inhibition, 48 h
Malme-3M = tested on: Malme-3M
COLO 205 = tested on: COLO 205
DU-145 = tested on: DU-145
TK-10 = tested on: TK-10
SF-295 = tested on: SF-295
SW-620 = tested on: SW-620
SNB-19 = tested on: SNB-19
SF-268 = tested on: SF-268
MDA-MB-231 = tested on: MDA-MB-231
KM12 = tested on: KM12
HOP-62 = tested on: HOP-62
UACC-257 = tested on: UACC-257
OVCAR-8 = tested on: OVCAR-8
IGROV-1 = tested on: IGROV-1
NCI-H460 = tested on: NCI-H460
MDA-MB-435 = tested on: MDA-MB-435
RPMI-8226 = tested on: RPMI-8226
NCI-H23 = tested on: NCI-H23
BT-549 = tested on: BT-549
RXF 393 = tested on: RXF 393

N=C(N)NNC(=O)C(=O)O
GI50 (Malme-3M): > 100 µM (inactive)
GI50 (COLO 205): > 100 µM (inactive)
GI50 (DU-145): > 100 µM (inactive)
GI50 (TK-10): > 100 µM (inactive)
GI50 (SF-295): > 100 µM (inactive)
GI50 (SW-620): > 100 µM (inactive)
GI50 (SNB-19): > 100 µM (inactive)
GI50 (SF-268): > 100 µM (inactive)
GI50 (MDA-MB-231): > 100 µM (inactive)
GI50 (KM12): > 100 µM (inactive)
GI50 (HOP-62): > 100 µM (inactive)
GI50 (UACC-257): > 100 µM (inactive)
GI50 (OVCAR-8): > 100 µM (inactive)
GI50 (IGROV-1): > 100 µM (inactive)
GI50 (NCI-H460): > 100 µM (inactive)
GI50 (MDA-MB-435): > 100 µM (inactive)
GI50 (RPMI-8226): > 100 µM (inactive)
GI50 (NCI-H23): > 100 µM (inactive)
GI50 (BT-549): > 100 µM (inactive)
GI50 (RXF 393): > 100 µM (inactive)

CC1(C)OCC(C2OC(OC(=O)c3ccc([N+](=O)[O-])cc3)C3OC(C)(C)OC23)O1 (stereo not given)
GI50 (Malme-3M): > 100 µM (inactive)
GI50 (COLO 205): > 100 µM (inactive)
GI50 (DU-145): > 100 µM (inactive)
GI50 (TK-10): > 100 µM (inactive)
GI50 (SF-295): 53.2 µM (inactive)
GI50 (SW-620): > 100 µM (inactive)
GI50 (SNB-19): 59 µM (inactive)
GI50 (SF-268): 20.5 µM (inactive)
GI50 (MDA-MB-231): > 100 µM (inactive)
GI50 (KM12): > 100 µM (inactive)
GI50 (HOP-62): 27.3 µM (inactive)
GI50 (UACC-257): > 100 µM (inactive)
GI50 (OVCAR-8): > 100 µM (inactive)
GI50 (IGROV-1): > 100 µM (inactive)
GI50 (NCI-H460): > 100 µM (inactive)
GI50 (MDA-MB-435): > 100 µM (inactive)
GI50 (RPMI-8226): > 100 µM (inactive)
GI50 (NCI-H23): > 100 µM (inactive)
GI50 (BT-549): > 100 µM (inactive)
GI50 (RXF 393): 58.1 µM (inactive)

Nc1nc(Sc2ccc([N+](=O)[O-])cn2)c2nc[nH]c2n1
GI50 (Malme-3M): 11.4 µM (inactive)
GI50 (COLO 205): 11.8 µM (inactive)
GI50 (DU-145): 3.32 µM (inactive)
GI50 (TK-10): 9.08 µM (inactive)
GI50 (SF-295): 9.46 µM (inactive)
GI50 (SW-620): 18.2 µM (inactive)
GI50 (SNB-19): 23.8 µM (inactive)
GI50 (SF-268): 4.35 µM (inactive)
GI50 (MDA-MB-231): 5.9 µM (inactive)
GI50 (KM12): 7.38 µM (inactive)
GI50 (HOP-62): 4.6 µM (inactive)
GI50 (UACC-257): 18 µM (inactive)
GI50 (OVCAR-8): 4.81 µM (inactive)
GI50 (IGROV-1): 14.5 µM (inactive)
GI50 (NCI-H460): 4.88 µM (inactive)
GI50 (MDA-MB-435): 4.79 µM (inactive)
GI50 (RPMI-8226): 14 µM (inactive)
GI50 (NCI-H23): 8.05 µM (inactive)
GI50 (BT-549): 8.45 µM (inactive)
GI50 (RXF 393): 2.73 µM (inactive)

COc1ccc2[nH]c(C(O)(Cc3cccnc3)Cc3cccnc3)cc2c1
GI50 (Malme-3M): > 100 µM (inactive)
GI50 (COLO 205): > 100 µM (inactive)
GI50 (DU-145): > 100 µM (inactive)
GI50 (TK-10): > 100 µM (inactive)
GI50 (SF-295): > 100 µM (inactive)
GI50 (SW-620): > 100 µM (inactive)
GI50 (SNB-19): > 100 µM (inactive)
GI50 (SF-268): > 100 µM (inactive)
GI50 (MDA-MB-231): > 100 µM (inactive)
GI50 (KM12): > 100 µM (inactive)
GI50 (HOP-62): > 100 µM (inactive)
GI50 (UACC-257): > 100 µM (inactive)
GI50 (OVCAR-8): > 100 µM (inactive)
GI50 (IGROV-1): > 100 µM (inactive)
GI50 (NCI-H460): > 100 µM (inactive)
GI50 (MDA-MB-435): > 100 µM (inactive)
GI50 (RPMI-8226): > 100 µM (inactive)
GI50 (NCI-H23): > 100 µM (inactive)
GI50 (BT-549): > 100 µM (inactive)
GI50 (RXF 393): > 100 µM (inactive)

O=C(O)/C=C/C(=O)Nc1cccc2c1-c1ccccc1C2=O
GI50 (Malme-3M): 8.28 µM (inactive)
GI50 (COLO 205): 13.1 µM (inactive)
GI50 (DU-145): 10.3 µM (inactive)
GI50 (TK-10): 5.68 µM (inactive)
GI50 (SF-295): 3.57 µM (inactive)
GI50 (SW-620): 5.53 µM (inactive)
GI50 (SNB-19): 17.9 µM (inactive)
GI50 (SF-268): 16.3 µM (inactive)
GI50 (MDA-MB-231): 13.3 µM (inactive)
GI50 (KM12): 16.9 µM (inactive)
GI50 (HOP-62): 8.75 µM (inactive)
GI50 (UACC-257): 3.75 µM (inactive)
GI50 (OVCAR-8): 21.6 µM (inactive)
GI50 (IGROV-1): 4.75 µM (inactive)
GI50 (NCI-H460): 3.67 µM (inactive)
GI50 (MDA-MB-435): 2.85 µM (inactive)
GI50 (RPMI-8226): 8.81 µM (inactive)
GI50 (NCI-H23): 18.2 µM (inactive)
GI50 (BT-549): 16.9 µM (inactive)
GI50 (RXF 393): 8.2 µM (inactive)

O=C(O)CN(CC(=O)O)c1ccccc1
GI50 (Malme-3M): 45.8 µM (inactive)
GI50 (COLO 205): > 100 µM (inactive)
GI50 (DU-145): > 100 µM (inactive)
GI50 (TK-10): > 100 µM (inactive)
GI50 (SF-295): > 100 µM (inactive)
GI50 (SW-620): > 100 µM (inactive)
GI50 (SNB-19): > 100 µM (inactive)
GI50 (SF-268): > 100 µM (inactive)
GI50 (MDA-MB-231): 92.3 µM (inactive)
GI50 (KM12): 60.1 µM (inactive)
GI50 (HOP-62): > 100 µM (inactive)
GI50 (UACC-257): 18.2 µM (inactive)
GI50 (OVCAR-8): > 100 µM (inactive)
GI50 (IGROV-1): > 100 µM (inactive)
GI50 (NCI-H460): 71.1 µM (inactive)
GI50 (MDA-MB-435): 70.6 µM (inactive)
GI50 (RPMI-8226): 35.6 µM (inactive)
GI50 (NCI-H23): 75.3 µM (inactive)
GI50 (BT-549): > 100 µM (inactive)
GI50 (RXF 393): > 100 µM (inactive)

c1ccc2cc(OCC3CO3)c(OCC3CO3)cc2c1 (stereo not given)
GI50 (Malme-3M): 7.64 µM (inactive)
GI50 (COLO 205): 12.8 µM (inactive)
GI50 (DU-145): 3.85 µM (inactive)
GI50 (TK-10): 12.1 µM (inactive)
GI50 (SF-295): 2.21 µM (inactive)
GI50 (SW-620): 1.91 µM (inactive)
GI50 (SNB-19): 5.3 µM (inactive)
GI50 (SF-268): 0.891 µM (active)
GI50 (MDA-MB-231): 14.5 µM (inactive)
GI50 (KM12): 5.7 µM (inactive)
GI50 (HOP-62): 1.43 µM (inactive)
GI50 (UACC-257): 10.2 µM (inactive)
GI50 (OVCAR-8): 2.94 µM (inactive)
GI50 (IGROV-1): 1.3 µM (inactive)
GI50 (NCI-H460): 4.2 µM (inactive)
GI50 (MDA-MB-435): 10.1 µM (inactive)
GI50 (RPMI-8226): 1.92 µM (inactive)
GI50 (NCI-H23): 2.72 µM (inactive)
GI50 (BT-549): 1.45 µM (inactive)
GI50 (RXF 393): < 0.01 µM (active)
